The values that follow come from patent US10913727B2, “Modulators of the integrated stress pathway” (Calico Life Sciences LLC, priority 2016, dated 2021).

A word on the EC50: it is the concentration that produces a half-maximal response.

The assay has as its system HEK293T cells carrying the ATF4 luciferase reporter. The experiment in a line: ATF4-Luc assay, in vitro model of Vanishing Cell White Matter Disease (VWMD). In kind it is cell-based. The note with it: Homo sapiens, HEK-293T, 1 μg/mL tunicamycin, 7 hours, One Glo luminescence. A digest of the protocol: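 Compound at 200 nM and tunicamycin at 1 μg/mL were given together for 7 h to HEK293T cells stably transduced with an ATF4 5′-UTR-driven firefly luciferase reporter. Read-out by luminescence, reported as EC50.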
For `O=C(COc1ccc(Cl)c(Cl)c1)NC12CC(NC(=O)c3ccnc(CO)c3)(C1)C2` [Compound 715, N-{3-[2-(3,4-dichlorophenoxy)acetamido]bicyclo[1.1.1]pentan-1-yl}-2-(hydroxymethyl)pyridine-4-carboxamide], the concentration for a half-maximal effect (EC50) fell in the range of 1000 to 2000 nM.
To `O=C(COc1ccc(Cl)c(F)c1)NC12CC(NC(=O)c3cc(CNC(=O)C4CC4)ccn3)(C1)C2` [Compound 391, N-{3-[2-(4-chloro-3-fluorophenoxy)acetamido]bicyclo[1.1.1]pentan-1-yl}-4-{[(cyclopropanecarbonyl)amino]methyl}pyridine-2-carboxamide] belongs 250 to 1000 nM; to `Cc1ccnc(C(=O)NC23CC(NC(=O)COc4ccc(Cl)c(Cl)c4)(C2)C3)c1` [Compound 526, N-{3-[2-(3,4-dichlorophenoxy)acetamido]bicyclo[1.1.1]pentan-1-yl}-4-methylpyridine-2-carboxamide], 250 to 1000 nM; to `COc1cc(C(=O)NC23CCC(NC(=O)COc4ccc(Cl)c(F)c4)(C2)C3)on1` [Compound 707, N-{4-[2-(4-chloro-3-fluorophenoxy)acetamido]bicyclo[2.1.1]hexan-1-yl}-3-methoxy-1,2-oxazole-5-carboxamide], 250 to 1000 nM.
To `O=C(COc1ccc(Cl)c(F)c1)NC12CC(NC(=O)c3ccc(OC(F)(F)F)cn3)(C1)C2` [Compound 117, N-{3-[2-(4-chloro-3-fluorophenoxy)acetamido]bicyclo[1.1.1]pentan-1-yl}-5-(trifluoromethoxy)pyridine-2-carboxamide] belongs below 50 nM; to `CCOc1ccccc1C(=O)NC12CC(NC(=O)COc3ccc(Cl)c(F)c3)(C1)C2` [Compound 538, N-{3-[2-(4-chloro-3-fluorophenoxy)acetamido]bicyclo[1.1.1]pentan-1-yl}-2-ethoxybenzamide], below 50 nM.
The same measure for `O=C(COc1ccc(Cl)c(F)c1)NC12CC(Nc3cc(C(F)(F)F)ccn3)(C1)C2` [Compound 757, 2-(4-chloro-3-fluorophenoxy)-N-(3-{[4-(trifluoromethyl)pyridin-2-yl]amino}bicyclo[1.1.1]pentan-1-yl)acetamide]: above 2000 nM.
As for `O=C(COc1ccc(Cl)c(F)c1)NC12CC(NC(=O)c3cccc4nsnc34)(C1)C2` [Compound 803, N-{3-[2-(4-chloro-3-fluorophenoxy)acetamido]bicyclo[1.1.1]pentan-1-yl}-2,1,3-benzothiadiazole-4-carboxamide], the EC50 was above 2000 nM.
The same measure for `Cn1ccc(C(=O)NC23CCC(NC(=O)COc4ccc(Cl)c(F)c4)(CC2)C(O)C3)n1` (centres unmarked) [Compound 361, N-{4-[2-(4-chloro-3-fluorophenoxy)acetamido]-3-hydroxybicyclo[2.2.2]octan-1-yl}-1-methyl-1H-pyrazole-3-carboxamide]: 50 to 250 nM.
To `O=C(COc1ccc(Cl)c(F)c1)NC12CC(NC(=O)c3cn4cccnc4n3)(C1)C2` [Compound 772, N-{3-[2-(4-chloro-3-fluorophenoxy)acetamido]bicyclo[1.1.1]pentan-1-yl}imidazo[1,2-a]pyrimidine-2-carboxamide] belongs above 2000 nM; to `Cc1cc(C(=O)NC23CC(NC(=O)COc4ccc(Cl)c(F)c4)(C2)C3)ncc1Cl` [Compound 664, 5-chloro-N-{3-[2-(4-chloro-3-fluorophenoxy)acetamido]bicyclo[1.1.1]pentan-1-yl}-4-methylpyridine-2-carboxamide], 250 to 1000 nM.
The same measure for `O=C(COc1ccc(Cl)c(F)c1)NC12CCC(NC(=O)c3cc4nccnc4s3)(CC1)CC2O` (centres unmarked) [Compound 627, N-{4-[2-(4-chloro-3-fluorophenoxy)acetamido]-3-hydroxybicyclo[2.2.2]octan-1-yl}thieno[2,3-b]pyrazine-6-carboxamide]: above 2000 nM; for `C[S+]([O-])c1ccccc1C(=O)NC12CC(NC(=O)COc3ccc(Cl)c(F)c3)(C1)C2` (centres unmarked) [Compound 858, N-{3-[2-(4-chloro-3-fluorophenoxy)acetamido]bicyclo[1.1.1]pentan-1-yl}-2-(methanesulfinyl)benzamide]: 1000 to 2000 nM.
On to `Cc1nn(C)c2sc(C(=O)NC34CC(NC(=O)COc5ccc(Cl)c(F)c5)(C3)C4)cc12` [Compound 878, N-{3-[2-(4-chloro-3-fluorophenoxy)acetamido]bicyclo[1.1.1]pentan-1-yl}-1,3-dimethyl-1H-thieno[2,3-c]pyrazole-5-carboxamide], for which the 50% effective concentration (EC50) lay within 250 to 1000 nM.
To `Cc1cc(C(=O)NC23CCC(NC(=O)COc4ccc(Cl)c(F)c4)(CC2)[C@@H](O)C3)on1` (single isomer, unassigned) [Compound 358] belongs below 50 nM; to `COc1cc(C(=O)NC23CC(NC(=O)COc4ccc(Cl)c(F)c4)(C2)C3)ccc1F` [Compound 531, N-{3-[2-(4-chloro-3-fluorophenoxy)acetamido]bicyclo[1.1.1]pentan-1-yl}-4-fluoro-3-methoxybenzamide], 1000 to 2000 nM; to `O=C(COc1ccc(Cl)c(F)c1)NC12CC(NC(=O)c3cncnc3)(C1)C2` [Compound 188, N-{3-[2-(4-chloro-3-fluorophenoxy)acetamido]bicyclo[1.1.1]pentan-1-yl}pyrimidine-5-carboxamide], 250 to 1000 nM.
The same measure for `CC(=O)Nc1sccc1C(=O)NC12CC(NC(=O)COc3ccc(Cl)c(F)c3)(C1)C2` [Compound 876, 2-acetamido-N-{3-[2-(4-chloro-3-fluorophenoxy)acetamido]bicyclo[1.1.1]pentan-1-yl}thiophene-3-carboxamide]: 250 to 1000 nM.
To `Cc1ccc2nc(C(=O)NC34CCC(NC(=O)COc5ccc(Cl)c(F)c5)(CC3)C(O)C4)cn2c1` (centres unmarked) [Compound 597, N-{4-[2-(4-chloro-3-fluorophenoxy)acetamido]-3-hydroxybicyclo[2.2.2]octan-1-yl}-6-methylimidazo[1,2-a]pyridine-2-carboxamide] belongs 250 to 1000 nM; to `Cc1nn(C)c(C(=O)NC23CCC(NC(=O)COc4ccc(Cl)c(F)c4)(CC2)C[C@@H]3O)c1F` [Compound 498, N-{(2S)-4-[2-(4-chloro-3-fluorophenoxy)acetamido]-2-hydroxybicyclo[2.2.2]octan-1-yl}-4-fluoro-1,3-dimethyl-1H-pyrazole-5-carboxamide], below 50 nM; to `COCCCc1cnc(C(=O)NC23CC(NC(=O)COc4ccc(Cl)c(F)c4)(C2)C3)cn1` [Compound 172, N-{3-[2-(4-chloro-3-fluorophenoxy)acetamido]bicyclo[1.1.1]pentan-1-yl}-5-(3-methoxypropyl)pyrazine-2-carboxamide], 250 to 1000 nM.
For the compound `Cc1cnc(C(=O)NC23CCC(NC(=O)COc4ccc(Cl)c(F)c4)(C2)C3)s1` [Compound 616, N-{4-[2-(4-chloro-3-fluorophenoxy)acetamido]bicyclo[2.1.1]hexan-1-yl}-5-methyl-1,3-thiazole-2-carboxamide], the EC50 was above 2000 nM.
The same measure for `O=C(COc1ccc(Cl)c(F)c1)NC12CC(NC(=O)c3cc(C(=O)NC4CC(F)(F)C4)ccn3)(C1)C2` [Compound 263, N^2-{3-[2-(4-chloro-3-fluorophenoxy)acetamido]bicyclo[1.1.1]pentan-1-yl}-N^4-(3,3-difluorocyclobutyl)pyridine-2,4-dicarboxamide]: 250 to 1000 nM; for `Cc1nc2cc(C(=O)NC34CC(NC(=O)COc5ccc(Cl)c(F)c5)(C3)C4)ccc2n1C` [Compound 810, N-{3-[2-(4-chloro-3-fluorophenoxy)acetamido]bicyclo[1.1.1]pentan-1-yl}-1,2-dimethyl-1H-benzimidazole-5-carboxamide]: above 2000 nM.
The same measure for `Cc1noc(C)c1C(=O)NC12CC(NC(=O)COc3ccc(Cl)c(F)c3)(C1)C2` [Compound 312, N-{3-[2-(4-chloro-3-fluorophenoxy)acetamido]bicyclo[1.1.1]pentan-1-yl}-3,5-dimethyl-1,2-oxazole-4-carboxamide]: above 2000 nM; for `O=C(COc1ccc(Cl)c(F)c1)NC12CC(NC(=O)c3cnc(C(F)F)cn3)(C1)C2` [Compound 134, N-{3-[2-(4-chloro-3-fluorophenoxy)acetamido]bicyclo[1.1.1]pentan-1-yl}-5-(difluoromethyl)pyrazine-2-carboxamide]: below 50 nM.
With `O=C(COc1ccc(Cl)c(F)c1)NC12CCC(NC(=O)c3ccc4c(c3)OCO4)(CC1)C(O)C2` (centres unmarked) [Compound 211, N-{4-[2-(4-chloro-3-fluorophenoxy)acetamido]-2-hydroxybicyclo[2.2.2]octan-1-yl}-2H-1,3-benzodioxole-5-carboxamide], the concentration for a half-maximal effect (EC50) was 1000 to 2000 nM.
To `O=C(COc1ccc(Cl)c(F)c1)NC12CCC(NC(=O)c3coc(C(F)(F)F)c3)(CC1)CC2O` (centres unmarked) [Compound 566, N-{4-[2-(4-chloro-3-fluorophenoxy)acetamido]-3-hydroxybicyclo[2.2.2]octan-1-yl}-5-(trifluoromethyl)furan-3-carboxamide] belongs below 50 nM; to `O=C(COc1ccc(Cl)c(F)c1)NC12CCC(NC(=O)c3cccc(F)c3)(CC1)C[C@@H]2O` [Compound 681, N-{(3S)-4-[2-(4-chloro-3-fluorophenoxy)acetamido]-3-hydroxybicyclo[2.2.2]octan-1-yl}-3-fluorobenzamide], below 50 nM.
The same measure for `O=C(COc1ccc(Cl)c(F)c1)NC12CC(NC(=O)c3ccc(C(F)F)nc3)(C1)C2` [Compound 207, N-{3-[2-(4-chloro-3-fluorophenoxy)acetamido]bicyclo[1.1.1]pentan-1-yl}-6-(difluoromethyl)pyridine-3-carboxamide]: 50 to 250 nM.
As to `O=C(COc1ccc(Cl)c(F)c1)NC12CCC(NC(=O)c3ccc(OC(F)(F)F)cn3)(CC1)CC2O` (centres unmarked) [Compound 480, N-{4-[2-(4-chloro-3-fluorophenoxy)acetamido]-3-hydroxybicyclo[2.2.2]octan-1-yl}-5-(trifluoromethoxy)pyridine-2-carboxamide], the EC50 is below 50 nM.
On to `O=C(COc1ccc(Cl)c(F)c1)NC12CCC(NC(=O)c3ccccn3)(CC1)C(O)C2` (centres unmarked) [Compound 167, N-{4-[2-(4-chloro-3-fluorophenoxy)acetamido]-2-hydroxybicyclo[2.2.2]octan-1-yl}pyridine-2-carboxamide], for which the EC50 lay within 50 to 250 nM.
